Measurements: the Kinase Knowledgebase extract (Sharma et al. 2016)

biological target: PIK3CD (Human) (UniProt O00329); assay: Assessment of PIK3CD Kinase Activity
Sequence (O00329 whole entry, looked up): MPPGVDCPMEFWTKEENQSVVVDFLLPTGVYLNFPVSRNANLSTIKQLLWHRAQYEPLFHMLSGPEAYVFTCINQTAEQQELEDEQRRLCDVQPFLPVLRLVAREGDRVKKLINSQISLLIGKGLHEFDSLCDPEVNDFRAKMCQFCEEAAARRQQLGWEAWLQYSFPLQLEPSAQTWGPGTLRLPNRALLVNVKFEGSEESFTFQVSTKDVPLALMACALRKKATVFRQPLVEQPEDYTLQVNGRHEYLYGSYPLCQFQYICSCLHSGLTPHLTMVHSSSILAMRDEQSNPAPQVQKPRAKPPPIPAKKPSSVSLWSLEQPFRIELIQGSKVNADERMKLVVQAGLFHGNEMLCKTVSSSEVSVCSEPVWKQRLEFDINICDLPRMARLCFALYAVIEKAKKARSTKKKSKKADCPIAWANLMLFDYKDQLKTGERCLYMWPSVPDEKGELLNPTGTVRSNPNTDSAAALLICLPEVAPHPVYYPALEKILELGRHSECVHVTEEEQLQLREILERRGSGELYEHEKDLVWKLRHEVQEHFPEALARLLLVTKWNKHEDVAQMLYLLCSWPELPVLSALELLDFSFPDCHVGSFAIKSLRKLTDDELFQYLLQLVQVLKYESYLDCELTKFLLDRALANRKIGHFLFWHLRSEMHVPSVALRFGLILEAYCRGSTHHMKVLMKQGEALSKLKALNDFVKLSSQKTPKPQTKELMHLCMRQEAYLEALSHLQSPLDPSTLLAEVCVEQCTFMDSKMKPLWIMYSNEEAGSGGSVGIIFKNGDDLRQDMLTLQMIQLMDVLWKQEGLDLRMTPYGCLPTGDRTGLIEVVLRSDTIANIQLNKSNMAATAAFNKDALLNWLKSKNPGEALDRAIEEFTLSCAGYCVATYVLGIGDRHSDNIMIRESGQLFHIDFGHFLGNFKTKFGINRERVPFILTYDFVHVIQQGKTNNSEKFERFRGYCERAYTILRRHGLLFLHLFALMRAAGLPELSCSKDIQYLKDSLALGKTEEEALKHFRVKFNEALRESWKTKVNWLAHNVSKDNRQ

Structure (SMILES)	IC50 [nM]
CN1CCC(N(C)Cc2ccc3nc(-c4cccc5[nH]ccc45)nc(N4CCOCC4)c3c2)CC1	< 500
C[C@@H]1CN(Cc2ccc3nc(-c4cccc5[nH]ccc45)nc(N4CCOCC4)c3c2)C[C@H](C)N1	< 500
c1cc(-c2nc(N3CCOCC3)c3cc(CN4CC5CCC(C4)N5)ccc3n2)c2cc[nH]c2c1	< 500
c1cc(-c2nc(N3CCOCC3)c3cc(CN4CC5(CCNCC5)C4)ccc3n2)c2cc[nH]c2c1	< 500
CN1CCC(N(C)Cc2ccc3nc(-c4cc(F)cc5[nH]ccc45)nc(N4CCOCC4)c3c2)CC1	< 500
c1cc(-c2nc(N3CCOCC3)c3cc(CN4CCC(N5CCOCC5)CC4)ccc3n2)c2cc[nH]c2c1	< 500
Fc1cc(-c2nc(N3CCOCC3)c3cc(CN4CCC(N5CCOCC5)CC4)ccc3n2)c2cc[nH]c2c1	< 500
c1cc(-c2nc(N3CCOCC3)c3cc(CN4CCN5CCC[C@H]5C4)ccc3n2)c2cc[nH]c2c1	< 500
c1cc(-c2nc(N3CCOCC3)c3cc(CN4CC5CNCC5C4)ccc3n2)c2cc[nH]c2c1 (configuration not stated)	< 500
OCCN1CCN(Cc2ccc3nc(-c4cccc5[nH]ccc45)nc(N4CCOCC4)c3c2)CC1	< 500
Fc1ccc2[nH]ccc2c1-c1nc(N2CCOCC2)c2cc(CN3C[C@@H]4C[C@H]3CN4)ccc2n1	< 500
CN1CCN(Cc2ccc3nc(-c4cccc5[nH]ccc45)nc(N4CCOCC4)c3c2)CC1	< 500
